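1) Cells in 96-well plates. 2) Compound, 48 h, 5 concentrations. 3) Linear interpolation between surrounding doses. 4) Unreached endpoint = highest concentration. GI50 is the concentration that inhibits growth by half. TGI marks complete inhibition of growth.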
What was measured:
Experiment in all cases: growth of human tumour cells (NCI), 48 h
[1] = system: EKVX NSCLC
[2] = system: LOX IMVI melanoma
[3] = system: RPMI-8226 leukemia
[4] = system: TK-10 renal
[5] = system: UACC-62 melanoma
[6] = system: MALME-3M melanoma
[7] = system: SNB-75 CNS
[8] = system: UACC-257 melanoma
[9] = system: MCF7 breast
[10] = system: PC-3 prostate

## Cn1nc(-c2ccccc2)c(C(=O)/C=C/c2ccc(Cl)cc2)c(N2CCCC2)c1=O
[1]
  TGI: 32.4 µM
[2]
  TGI: 39.2 µM
[3]
  TGI: 7.84 µM
[4]
  TGI: 26.6 µM
[5]
  TGI: 22.4 µM

## Cc1ccc2nc(NC(=O)C(=O)CC(=O)c3cccc4ccccc34)sc2c1
[1]
  TGI: > 100 µM
[2]
  TGI: > 100 µM
[6]
  TGI: 70.2 µM
[3]
  TGI: > 100 µM
[7]
  TGI: 36.5 µM
[4]
  TGI: 44.6 µM
[8]
  TGI: 82.2 µM
[5]
  TGI: 86.8 µM

## COC(=O)C(=O)C(C(=O)C(=O)Nc1cc(Cl)c(Cl)cc1Cl)c1nc2ccc([N+](=O)[O-])cc2[nH]c1=O (stereo unspecified)
[1]
  TGI: > 100 µM
[2]
  TGI: > 100 µM
[6]
  TGI: > 100 µM
[3]
  TGI: > 100 µM
[4]
  TGI: > 100 µM
[8]
  TGI: > 100 µM
[5]
  TGI: > 100 µM

## CC(=O)[C-](C(C)=O)c1ccccc1.CC(=O)[C-](C(C)=O)c1ccccc1.CC(=O)[C-](C(C)=O)c1ccccc1.[Cl-].[Zr+4]
[1]
  GI50: > 100 µM
  TGI: > 100 µM
[2]
  GI50: > 100 µM
  TGI: > 100 µM
[6]
  GI50: > 100 µM
  TGI: > 100 µM
[3]
  GI50: > 100 µM
  TGI: > 100 µM
[7]
  GI50: 33 µM
  TGI: 83.9 µM
[4]
  GI50: > 100 µM
  TGI: > 100 µM
[8]
  GI50: > 100 µM
  TGI: > 100 µM
[5]
  GI50: > 100 µM
  TGI: > 100 µM

## C/C(=N/O)c1ccc(Nc2cc(-n3ccnc3)c3ccccc3n2)cc1
[1]
  GI50: 22 µM
  TGI: > 100 µM
[6]
  GI50: 11.4 µM
  TGI: 44.5 µM
[9]
  GI50: 85.3 µM
  TGI: > 100 µM
[10]
  GI50: 3.69 µM
  TGI: > 100 µM
[3]
  GI50: 0.716 µM
  TGI: 4.42 µM
[7]
  GI50: 7.04 µM
  TGI: 73.5 µM
[4]
  GI50: 16.4 µM
  TGI: > 100 µM
[8]
  GI50: 3.77 µM
  TGI: 9.35 µM
[5]
  GI50: 27.8 µM
  TGI: > 100 µM

## O=C(Nc1nc2ccccc2s1)c1cc(-c2ccc(F)cc2)n2nc(-c3ccccc3)cc2n1
[1]
  GI50: 6.69 µM
  TGI: > 100 µM
[6]
  GI50: 3.74 µM
  TGI: > 100 µM
[9]
  GI50: 5.29 µM
  TGI: > 100 µM
[3]
  GI50: 5.59 µM
  TGI: > 100 µM
[7]
  GI50: 1.75 µM
  TGI: 5.82 µM
[4]
  GI50: 2.45 µM
  TGI: 5.54 µM
[5]
  GI50: 3.79 µM
  TGI: > 100 µM

## CC(C(N)=O)N(C)C(=O)c1cnc2ccccc2c1 (stereo unspecified)
[6]
  TGI: > 100 µM
[9]
  TGI: > 100 µM
[10]
  TGI: > 100 µM
[3]
  TGI: > 100 µM
[7]
  TGI: > 100 µM
[4]
  TGI: > 100 µM
[8]
  TGI: > 100 µM
[5]
  TGI: > 100 µM

## CCc1cc(Cc2ccc(C)c(NC(=O)C(=O)C3C(=O)NC(=O)NC3=O)c2CC)cc(C)c1NC(=O)C(=O)C1C(=O)NC(=O)NC1=O
[1]
  TGI: > 100 µM
[2]
  TGI: > 100 µM
[6]
  TGI: > 100 µM
[3]
  TGI: > 100 µM
[7]
  TGI: > 100 µM
[4]
  TGI: > 100 µM
[8]
  TGI: > 100 µM
[5]
  TGI: > 100 µM

## S=c1c2ccccc2c(=S)n2n1CC=CC2
[1]
  TGI: > 100 µM
[2]
  TGI: > 100 µM
[6]
  TGI: > 100 µM
[3]
  TGI: > 100 µM
[7]
  TGI: > 100 µM
[4]
  TGI: > 100 µM
[8]
  TGI: > 100 µM
[5]
  TGI: > 100 µM

## CCOC(=O)CC(NC(=O)c1ccc(N=NN(C)C)cc1)C(=O)OCC (stereo unspecified)
[1]
  TGI: > 100 µM
[2]
  TGI: > 100 µM
[6]
  TGI: > 100 µM
[3]
  TGI: > 100 µM
[7]
  TGI: > 100 µM
[4]
  TGI: > 100 µM
[8]
  TGI: > 100 µM
[5]
  TGI: > 100 µM

## CC(=O)c1c2c(cc3c1CC1(C3)Cc3cc4c(c(C(=O)O)c3C1)CCC4)CCC2 (stereo unspecified)
[2]
  TGI: > 100 µM
[6]
  TGI: > 100 µM
[7]
  TGI: > 100 µM
[4]
  TGI: > 100 µM
[8]
  TGI: > 100 µM
[5]
  TGI: 78.7 µM

## COc1ccc(NC(=O)C2C(=O)N(c3ccc(OC)cc3)C(=O)/C2=N\NC(N)=O)cc1 (stereo unspecified)
[1]
  TGI: > 100 µM
[2]
  TGI: > 100 µM
[6]
  TGI: 68.5 µM
[3]
  TGI: > 100 µM
[7]
  TGI: 49.3 µM
[4]
  TGI: 70.9 µM
[8]
  TGI: > 100 µM
[5]
  TGI: 46.7 µM

## CCCCNC1=C(C(=O)OCC)/C(=N/NC(=O)c2ccccc2O)CO1
[1]
  TGI: > 100 µM
[2]
  TGI: > 100 µM
[6]
  TGI: > 100 µM
[3]
  TGI: > 100 µM
[4]
  TGI: > 100 µM
[8]
  TGI: 14.2 µM
[5]
  TGI: > 100 µM

## COc1ccc(C2=Nc3c/c(=C\c4c(O)[nH]c5cc(Cl)ccc45)ccc3=N2)cc1
[6]
  GI50: 2.87 µM
  TGI: 12.7 µM
[9]
  GI50: 2.42 µM
  TGI: 12.8 µM
[10]
  GI50: 3.18 µM
  TGI: 28.9 µM
[3]
  GI50: 1.73 µM
  TGI: 4.62 µM
[7]
  GI50: 3.1 µM
  TGI: 14.2 µM
[4]
  GI50: 21 µM
  TGI: 39.3 µM
[8]
  GI50: 11 µM
  TGI: 25.8 µM
[5]
  GI50: 8.95 µM
  TGI: 22.7 µM

## Cc1noc(/N=C2\C=C(Nc3onc(C)c3C)C(=O)c3ccccc32)c1C
[1]
  TGI: > 100 µM
[2]
  TGI: > 100 µM
[6]
  TGI: > 100 µM
[3]
  TGI: > 100 µM
[7]
  TGI: > 100 µM
[4]
  TGI: > 100 µM
[8]
  TGI: > 100 µM
[5]
  TGI: > 100 µM

## O=C1C=Cc2ncccc2C1=O
[1]
  TGI: 47.5 µM
[2]
  TGI: 26.9 µM
[6]
  TGI: > 57.2 µM
[3]
  TGI: 62.4 µM
[7]
  TGI: 49.8 µM
[4]
  TGI: > 58.8 µM
[8]
  TGI: 35.1 µM
[5]
  TGI: 31.1 µM

## CCCCCCCCCCCCCCCCCC(=O)NCC(COP(=O)(O)O)OCC (stereo unspecified)
[1]
  TGI: > 100 µM
[6]
  TGI: > 100 µM
[3]
  TGI: > 100 µM
[7]
  TGI: 82.5 µM
[4]
  TGI: > 100 µM
[8]
  TGI: > 100 µM
[5]
  TGI: > 100 µM

## O=C(/C=C/c1ccccc1)CCC1C(=O)NC(=S)NC1=O
[2]
  TGI: > 100 µM
[10]
  TGI: > 100 µM
[8]
  TGI: > 100 µM
[5]
  TGI: > 100 µM

## Nc1ccn(C2OC(C(OC3OC(CO)C(O)C(N)C3O)C(O)C(O)C(O)C(O)CO)C(N)C(O)C2O)c(=O)n1 (stereo unspecified)
[1]
  TGI: > 100 µM
[2]
  TGI: > 100 µM
[9]
  TGI: > 100 µM
[10]
  TGI: > 100 µM
[3]
  TGI: > 100 µM
[4]
  TGI: > 100 µM
[8]
  TGI: > 100 µM
[5]
  TGI: > 100 µM

## COc1cc(Cn2c(-c3ccccc3)cc3c2-c2oncc2CC3)cc(OC)c1
[1]
  GI50: 0.449 µM
  TGI: > 100 µM
[2]
  GI50: 0.757 µM
  TGI: > 100 µM
[9]
  GI50: 0.307 µM
  TGI: > 100 µM
[10]
  GI50: 0.677 µM
  TGI: > 100 µM
[3]
  GI50: 0.459 µM
[7]
  GI50: 0.201 µM
  TGI: 20.1 µM
[4]
  GI50: 2.44 µM
  TGI: > 100 µM
[8]
  TGI: > 100 µM
[5]
  GI50: 0.314 µM
  TGI: > 100 µM

## CC1=CC(=O)NP(=O)(C23CC4CC(CC(C4)C2)C3)N1 (stereo unspecified)
[1]
  TGI: > 100 µM
[2]
  TGI: > 100 µM
[6]
  TGI: > 100 µM
[3]
  TGI: > 100 µM
[7]
  TGI: > 100 µM
[4]
  TGI: > 100 µM
[8]
  TGI: > 100 µM
[5]
  TGI: > 100 µM

## CC(C)(C)Sc1nnc(SC(C)(C)C)c2c(=O)[nH]nc(SC(C)(C)C)c12
[1]
  TGI: 24.6 µM
[2]
  TGI: 24.2 µM
[6]
  TGI: 26.2 µM
[3]
  TGI: 12.2 µM
[7]
  TGI: 24.3 µM
[4]
  TGI: 37.8 µM
[8]
  TGI: 26.7 µM
[5]
  TGI: 22.2 µM

## COc1cc(C(C#N)NNc2nc(C)cc(=O)[nH]2)cc(OC)c1OC (stereo unspecified)
[2]
  TGI: > 100 µM
[6]
  TGI: > 100 µM
[3]
  TGI: > 100 µM
[7]
  TGI: > 100 µM
[4]
  TGI: > 100 µM
[8]
  TGI: > 100 µM
[5]
  TGI: > 100 µM
